Test systems include SNB-19; ACHN; A549; SF-539; MCF7; HCT-116; SN12C; MDA-MB-231; EKVX; SF-295; SK-MEL-28; SF-268; CCRF-CEM; CAKI-1; UACC-257; OVCAR-8; SK-OV-3; RXF 393; NCI-H460; K562.
Holding throughout (test): NCI-60 cell line screen, 48 h

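Compound exposure: 48 hours, 5 concentrations, 96-well plates. GI50 = concentration required for 50% inhibition of growth.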 Activity calls are given as the source filed them. No stated cut-off is given here; in the data, active = GI50 up to about 1.1 µM and inactive = higher.

The results in this text go back to ChEMBL document CHEMBL1201862, “PubChem BioAssay data set” (2004).

For the compound `C[C@]12Cc3cnn(-c4ccc(F)cc4)c3NC1CC[C@@H]1C2CC[C@@]2(C)C1CC[C@@H]2O` (stereo not given in full), the GI50 in the experiment with SNB-19 was 15.5 µM (inactive); with ACHN, 2.31 µM (inactive); in the experiment with A549, 4.14 µM (inactive); in the experiment on SF-539, 1.55 µM (inactive); in the experiment on MCF7 it was 4.32 µM (inactive); in the experiment on HCT-116, 3.94 µM (inactive). For the same compound, the GI50 in the experiment with SN12C is 13.2 µM (inactive); in the experiment with MDA-MB-231, 6.97 µM (inactive); in the experiment on EKVX, 4.75 µM (inactive); in the experiment with SF-295 it was 1.62 µM (inactive); in the experiment with SK-MEL-28 it was 14.1 µM (inactive); in the experiment on SF-268 it was 10.1 µM (inactive). Further, the GI50 in the experiment with CCRF-CEM was 6.92 µM (inactive); in the experiment on CAKI-1 it was 15.5 µM (inactive); in the experiment on UACC-257, 5.24 µM (inactive); in the experiment on OVCAR-8, 12.5 µM (inactive); in the experiment on SK-OV-3, 11.7 µM (inactive); in the experiment on RXF 393, 1.16 µM (inactive). In addition, the GI50 was 3.65 µM (inactive) with NCI-H460 and 2.94 µM (inactive) in the experiment with K562.

Take `CC1=Nc2c(O)nc(S)nc2NC(c2c(Cl)cccc2Cl)C1` (stereo not given): the GI50 in the experiment with SNB-19 is 2.99 µM (inactive); with ACHN, 4.86 µM (inactive); in the experiment on A549, 3.43 µM (inactive); in the experiment on SF-539, 1.75 µM (inactive); in the experiment with MCF7 it was 1.13 µM (inactive); in the experiment with HCT-116, 0.76 µM (active). Further, the GI50 in the experiment with SN12C is 1.42 µM (inactive); in the experiment with MDA-MB-231, 0.519 µM (active); in the experiment with EKVX, 7.18 µM (inactive); with SF-295, 1.61 µM (inactive); in the experiment on SK-MEL-28, 2.73 µM (inactive); with SF-268, 1.57 µM (inactive). Further, the GI50 in the experiment with CCRF-CEM is 0.275 µM (active); in the experiment with CAKI-1, 5.51 µM (inactive); in the experiment with UACC-257 it was 3.07 µM (inactive); in the experiment with OVCAR-8 it was 0.877 µM (active); in the experiment with SK-OV-3 it was 7.28 µM (inactive); in the experiment with RXF 393 it was 5.26 µM (inactive). Further, the figures for the GI50 with NCI-H460 and in the experiment on K562 were 1.92 µM (inactive) and 0.649 µM (active), respectively.

As for `COc1ccc(/C=C/C(=O)NCC(NC(=O)/C=C/c2ccc(OC)c(OC)c2)C(=O)O)cc1OC` (stereo not given), the GI50 in the experiment on SNB-19, with ACHN, in the experiment on A549, in the experiment with SF-539, with MCF7 and with HCT-116 was > 100 µM (inactive) throughout. Besides, the GI50 with SN12C, with MDA-MB-231, in the experiment on EKVX, in the experiment with SF-295, in the experiment on SK-MEL-28 and in the experiment on SF-268 was > 100 µM (inactive) in each case. Also, the GI50 in the experiment with CCRF-CEM, in the experiment on CAKI-1, with UACC-257, with OVCAR-8, in the experiment with SK-OV-3 and in the experiment on RXF 393 was > 100 µM (inactive) in each case. Further, the GI50 with NCI-H460 and in the experiment with K562 was > 100 µM (inactive) throughout.

Turning to `NC(=S)N/N=C/c1ncccc1N` [TRIAPINE], the GI50 in the experiment on SNB-19 was 9.89 µM (inactive); in the experiment on ACHN, 0.282 µM (active); in the experiment on A549 it was 2.02 µM (inactive); with SF-539, 0.239 µM (active); with MCF7, 0.452 µM (active); in the experiment on HCT-116, 0.986 µM (active). Further, the GI50 was 1.41 µM (inactive) in the experiment with SN12C; 5.28 µM (inactive) with MDA-MB-231; 7.55 µM (inactive) in the experiment with EKVX; 1.21 µM (inactive) in the experiment with SF-295; > 10 µM (inactive) with SK-MEL-28; 0.925 µM (active) in the experiment on SF-268. For the same compound, the GI50 is 0.466 µM (active) in the experiment on CCRF-CEM; 0.521 µM (active) with CAKI-1; > 6.65 µM (inactive) with UACC-257; 0.568 µM (active) in the experiment on OVCAR-8; > 8.55 µM (inactive) in the experiment with SK-OV-3; 1.07 µM (active) in the experiment with RXF 393. The GI50 is 1.68 µM (inactive) in the experiment with NCI-H460 and 3.13 µM (inactive) with K562.
